Data reported in patent US20070231406A1, “Use of gallium to treat biofilm-associated infections” (priority 2006, published 2007).
Where two headings read alike, the source gives them in different places.

Tests used:
[1] = test system: Pseudomonas aeruginosa Xen5; test: Biophotonic monitoring of catheter-associated UTI with bioluminescent P. aeruginosa Xen5 in CF-1 female mice; type: in vivo
Description: (§1) Catheter-associated UTI with Pseudomonas aeruginosa Xen5 (10^6 CFU/catheter) in CF-1 female mice was established as described by Kadurugamuwa et al. (2005) Infection and Immunity 73(7):3878-87). Gallium maltolate (GaM) was assessed for efficacy against urinary tract infection (UTI) by P. aeruginosa, alone or in combination with ciprofloxacin (cipro) using bioluminescent engineered P. aeruginosa Xen5 in a CF-1 female mice UTI model that allows real time monitoring of infection with the Xenogen IVIS® Imaging System.
(§2) Catheter-associated UTI with P. aeruginosa (10^6 colony forming units (CFU)/catheter) were established in mice and treated 2 days after infection for 4 consecutive days with GaM alone; or cipro alone; or the combination of GaM and cipro. A second cycle of treatment was started on days 9-11 and the study terminated on day 21. Controls included saline-treated uninfected and infected animals.
Ciprofloxacin US Pharmacopeia, Rockville, Md.) and gallium maltolate were administered by oral gavage. Ciprofloxacin was given in 0.2 mL of water and gallium maltolate in 0.2 mL water containing 1% carboxylmethyl cellulose. A second group of animals served as an untreated infection control group by being implanted with infected catheters and treated with saline. In another control group, animals were implanted with sterile catheters and served as a negative control.
Therapeutic agents were readministered for 3 consecutive days, after 4 days of cessation of the initial 4-day therapy.

P. aeruginosa Xen5 = type: in vivo, Pseudomonas aeruginosa
Description: as §1, §2

P. aeruginosa Xen 5 = type: in vivo, Pseudomonas aeruginosa
Description: as §1, §2

[2] = Pharmacokinetics of serum gallium (ICP-MS) after oral gallium maltolate in female CF-1 mice; type: in vivo; conditions: 30 and 300 mg/kg oral gavage q.d. for 4 days
Description: Adult, female CF-1 mice (initial weight range 32-39 gram) were treated with 30 and 300 mg/kg gallium maltolate by oral gavage q.d. for 4 consecutive days. Both doses were administered in the same volume of drug solution, i.e., 480 μL of 2.5 and 25 mg/mL gallium maltolate in 1% carboxyl methylcellulose. Blood was drawn at the following time points after the final dose administration: 0, 0.5, 1 3, 6, 9, 12, 24, 33 and 48 hours. Blood drawn at time point ‘0’ was taken immediately after dosing. Blood samples were collected within ±5% of the scheduled time point. Whole blood (500 to 1000 μL) was drawn from a single mouse by cardiac puncture, and four mice were sacrificed per time point for each dosing group. After blood collection, the specimens were held at room temperature to allow for clot formation followed by centrifugation to obtain serum. The concentration of gallium in 100 μL serum was determined by Inductively Coupled Plasma—Mass Spectrometry (ICP-MS).
After a weighted linear regression analysis calibration curve had been established and validated by quality control analysis, serum gallium concentrations in the samples were measured and the results plotted.

[3] = ciprofloxacin 30 mg/kg b.i.d. oral
[4] = 7 days after infection, ciprofloxacin 30 mg/kg b.i.d. oral
[5] = 11 days after infection, ciprofloxacin 30 mg/kg b.i.d. oral
[6] = 14 days after infection, ciprofloxacin 30 mg/kg b.i.d. oral
[7] = 16 days after infection, ciprofloxacin 30 mg/kg b.i.d. oral
[8] = 17 days after infection, ciprofloxacin 30 mg/kg b.i.d. oral
[9] = 21 days after infection, ciprofloxacin 30 mg/kg b.i.d. oral
[10] = gallium maltolate 30 mg/kg q.d. oral
[11] = gallium maltolate 100 mg/kg q.d. oral
[12] = gallium maltolate 300 mg/kg q.d. oral
[13] = 7 days after infection, gallium maltolate 300 mg/kg q.d. oral
[14] = 11 days after infection, gallium maltolate 30 mg/kg q.d. oral
[15] = 11 days after infection, gallium maltolate 100 mg/kg q.d. oral
[16] = 11 days after infection, gallium maltolate 300 mg/kg q.d. oral
[17] = 14 days after infection, gallium maltolate 300 mg/kg q.d. oral
[18] = 16 days after infection, gallium maltolate 30 mg/kg q.d. oral
[19] = 16 days after infection, gallium maltolate 100 mg/kg q.d. oral
[20] = 16 days after infection, gallium maltolate 300 mg/kg q.d. oral
[21] = 17 days after infection, gallium maltolate 30 mg/kg q.d. oral
[22] = 17 days after infection, gallium maltolate 100 mg/kg q.d. oral
[23] = 17 days after infection, gallium maltolate 300 mg/kg q.d. oral
[24] = 21 days after infection, gallium maltolate 30 mg/kg q.d. oral
[25] = 21 days after infection, gallium maltolate 100 mg/kg q.d. oral
[26] = 21 days after infection, gallium maltolate 300 mg/kg q.d. oral

O=C(O)c1cn(C2CC2)c2cc(N3CCNCC3)c(F)cc2c1=O [Ciprofloxacin, reference compound]
Percent bacterial growth in animals compared to untreated control ([1]; Day 2, ciprofloxacin 30 mg/kg b.i.d. oral): 100%
Percent bacterial growth in animals compared to untreated control ([1]; Day 5, ciprofloxacin 30 mg/kg b.i.d. oral): 3%
Percent bacterial growth in animals compared to untreated control ([1]; Day 8, ciprofloxacin 30 mg/kg b.i.d. oral): 9%
Percent bacterial growth in animals compared to untreated control ([1]; Day 10, ciprofloxacin 30 mg/kg b.i.d. oral): 2%
Percent bacterial growth in animals compared to untreated control ([1]; Day 15, ciprofloxacin 30 mg/kg b.i.d. oral): 138%
Percent bacterial growth in animals compared to untreated control ([1]; Day 21, ciprofloxacin 30 mg/kg b.i.d. oral): 272%
Bioluminescent signal after discontinuing first ciprofloxacin treatment ([1]; approximately two days after discontinuing the initial 4-day therapy): reestablishment of the infection upon cessation of antibiotic therapy
Bioluminescent signal in the bladder compared to untreated control ([1]; ciprofloxacin 30 mg/kg b.i.d., after four days of treatments): rapid decline in bioluminescent signal to almost nearly to undetectable levels
Bioluminescence signal on re-administration of antibiotic ([1]; re-administration for three consecutive days): repeat decline in the bioluminescence signal
Infection after discontinuation of second bout of ciprofloxacin treatment ([1]; soon after discontinuation of second treatment cycle): infection re-established once again and approximately reached untreated levels
% Mortality (P. aeruginosa Xen5; [3]): 12.5%
No. of animals with a kidney signal at day 21/Total no. of animals (P. aeruginosa Xen5; [3]): 1/7
Bacterial counts in urine, Geometric Mean (P. aeruginosa Xen 5; [4]): 3.3 × 10^3 CFU/ml
Range of bacterial counts in urine (P. aeruginosa Xen 5; [4]): 2.0 × 10^2-7.0 × 10^5 CFU/ml
Bacterial counts in urine, Geometric Mean (P. aeruginosa Xen 5; [5]): 2.0 × 10^2 CFU/ml
Range of bacterial counts in urine (P. aeruginosa Xen 5; [5]): 2.0 × 10^2 CFU/ml
Bacterial counts in urine, Geometric Mean (P. aeruginosa Xen 5; [6]): 1.1 × 10^5 CFU/ml
Range of bacterial counts in urine (P. aeruginosa Xen 5; [6]): 2.0 × 10^2-1.2 × 10^7 CFU/ml
Bacterial counts in urine, Geometric Mean (P. aeruginosa Xen 5; [7]): 3.2 × 10^4 CFU/ml
Range of bacterial counts in urine (P. aeruginosa Xen 5; [7]): 2.0 × 10^2-6.0 × 10^5 CFU/ml
Bacterial counts in urine, Geometric Mean (P. aeruginosa Xen 5; [8]): 1.2 × 10^5 CFU/ml
Range of bacterial counts in urine (P. aeruginosa Xen 5; [8]): 2.0 × 10^2-8.0 × 10^6 CFU/ml
Bacterial counts in urine, Geometric Mean (P. aeruginosa Xen 5; [9]): 2.2 × 10^5 CFU/ml
Range of bacterial counts in urine (P. aeruginosa Xen 5; [9]): 2.0 × 10^2-3.6 × 10^7 CFU/ml

Cc1occc(=O)c1[O-].Cc1occc(=O)c1[O-].Cc1occc(=O)c1[O-].[Ga+3] [Gallium maltolate, gallium maltolate]
Percent bacterial growth in animals compared to untreated control ([1]; Day 2, gallium maltolate 30 mg/kg q.d. oral): 100%
Percent bacterial growth in animals compared to untreated control ([1]; Day 2, gallium maltolate 100 mg/kg q.d. oral): 100%
Percent bacterial growth in animals compared to untreated control ([1]; Day 2, gallium maltolate 300 mg/kg q.d. oral): 100%
Percent bacterial growth in animals compared to untreated control ([1]; Day 5, gallium maltolate 30 mg/kg q.d. oral): 60%
Percent bacterial growth in animals compared to untreated control ([1]; Day 5, gallium maltolate 100 mg/kg q.d. oral): 33%
Percent bacterial growth in animals compared to untreated control ([1]; Day 5, gallium maltolate 300 mg/kg q.d. oral): 19%
Percent bacterial growth in animals compared to untreated control ([1]; Day 8, gallium maltolate 30 mg/kg q.d. oral): 10%
Percent bacterial growth in animals compared to untreated control ([1]; Day 8, gallium maltolate 100 mg/kg q.d. oral): 12%
Percent bacterial growth in animals compared to untreated control ([1]; Day 8, gallium maltolate 300 mg/kg q.d. oral): 7%
Percent bacterial growth in animals compared to untreated control ([1]; Day 10, gallium maltolate 30 mg/kg q.d. oral): 13%
Percent bacterial growth in animals compared to untreated control ([1]; Day 10, gallium maltolate 100 mg/kg q.d. oral): 2%
Percent bacterial growth in animals compared to untreated control ([1]; Day 10, gallium maltolate 300 mg/kg q.d. oral): 4%
Percent bacterial growth in animals compared to untreated control ([1]; Day 15, gallium maltolate 30 mg/kg q.d. oral): 54%
Percent bacterial growth in animals compared to untreated control ([1]; Day 15, gallium maltolate 100 mg/kg q.d. oral): 11%
Percent bacterial growth in animals compared to untreated control ([1]; Day 15, gallium maltolate 300 mg/kg q.d. oral): 20%
Percent bacterial growth in animals compared to untreated control ([1]; Day 21, gallium maltolate 30 mg/kg q.d. oral): 22%
Percent bacterial growth in animals compared to untreated control ([1]; Day 21, gallium maltolate 100 mg/kg q.d. oral): 1%
Percent bacterial growth in animals compared to untreated control ([1]; Day 21, gallium maltolate 300 mg/kg q.d. oral): 8%
Recurrence of infection after termination of administration ([1]; gallium maltolate 300 mg/kg): recurrence of high levels of infection did not occur
Bioluminescence signal level ([1]; gallium maltolate 300 mg/kg, remained until termination on day 21): approximately 10^5 photons/catheter
Antibacterial growth activity compared to untreated control ([1]; gallium maltolate 30 and 100 mg/kg): showed antibacterial growth activity
Initial half-life of elimination of serum gallium [2]: 8 to 12 h
Time of peak serum gallium concentration ([2]; after final dose): within half hour
Kidney infections at the termination of the study (P. aeruginosa Xen5; at all doses tested, day 21): free of kidney infections
% Mortality (P. aeruginosa Xen5; [10]): 25.0%
No. of animals with a kidney signal at day 21/Total no. of animals (P. aeruginosa Xen5; [10]): 0/3
% Mortality (P. aeruginosa Xen5; [11]): 25.0%
No. of animals with a kidney signal at day 21/Total no. of animals (P. aeruginosa Xen5; [11]): 0/3
% Mortality (P. aeruginosa Xen5; [12]): 0.0%
No. of animals with a kidney signal at day 21/Total no. of animals (P. aeruginosa Xen5; [12]): 0/4
Bacterial counts in urine, Geometric Mean (P. aeruginosa Xen 5; [13]): 3.0 × 10^5 CFU/ml
Range of bacterial counts in urine (P. aeruginosa Xen 5; [13]): 1.3 × 10^5-1.5 × 10^6 CFU/ml
Bacterial counts in urine, Geometric Mean (P. aeruginosa Xen 5; [14]): 1.5 × 10^5 CFU/ml
Range of bacterial counts in urine (P. aeruginosa Xen 5; [14]): 1.2 × 10^5-1.8 × 10^5 CFU/ml
Bacterial counts in urine, Geometric Mean (P. aeruginosa Xen 5; [15]): 4.6 × 10^4 CFU/ml
Range of bacterial counts in urine (P. aeruginosa Xen 5; [15]): 2.0 × 10^2-6.0 × 10^6 CFU/ml
Bacterial counts in urine, Geometric Mean (P. aeruginosa Xen 5; [16]): 1.1 × 10^5 CFU/ml
Range of bacterial counts in urine (P. aeruginosa Xen 5; [16]): 2.2 × 10^4-6.2 × 10^5 CFU/ml
Bacterial counts in urine, Geometric Mean (P. aeruginosa Xen 5; [17]): 2.3 × 10^5 CFU/ml
Range of bacterial counts in urine (P. aeruginosa Xen 5; [17]): 1.2 × 10^5-6.0 × 10^5 CFU/ml
Bacterial counts in urine, Geometric Mean (P. aeruginosa Xen 5; [18]): 2.4 × 10^5 CFU/ml
Range of bacterial counts in urine (P. aeruginosa Xen 5; [18]): 1.2 × 10^5-6.0 × 10^5 CFU/ml
Bacterial counts in urine, Geometric Mean (P. aeruginosa Xen 5; [19]): 1.1 × 10^4 CFU/ml
Range of bacterial counts in urine (P. aeruginosa Xen 5; [19]): 2.0 × 10^2-3.0 × 10^6 CFU/ml
Bacterial counts in urine, Geometric Mean (P. aeruginosa Xen 5; [20]): 5.8 × 10^5 CFU/ml
Range of bacterial counts in urine (P. aeruginosa Xen 5; [20]): 3.2 × 10^5-8 × 10^5 CFU/ml
Bacterial counts in urine, Geometric Mean (P. aeruginosa Xen 5; [21]): 1.6 × 10^5 CFU/ml
Range of bacterial counts in urine (P. aeruginosa Xen 5; [21]): 4.0 × 10^4-6.0 × 10^5 CFU/ml
Bacterial counts in urine, Geometric Mean (P. aeruginosa Xen 5; [22]): 2.9 × 10^4 CFU/ml
Range of bacterial counts in urine (P. aeruginosa Xen 5; [22]): 2.0 × 10^2-2.0 × 10^6 CFU/ml
Bacterial counts in urine, Geometric Mean (P. aeruginosa Xen 5; [23]): 3.2 × 10^5 CFU/ml
Range of bacterial counts in urine (P. aeruginosa Xen 5; [23]): 4.0 × 10^4-1.6 × 10^6 CFU/ml
Bacterial counts in urine, Geometric Mean (P. aeruginosa Xen 5; [24]): 1.6 × 10^5 CFU/ml
Range of bacterial counts in urine (P. aeruginosa Xen 5; [24]): 1.2 × 10^4-2.0 × 10^6 CFU/ml
Bacterial counts in urine, Geometric Mean (P. aeruginosa Xen 5; [25]): 8.2 × 10^3 CFU/ml
Range of bacterial counts in urine (P. aeruginosa Xen 5; [25]): 2.0 × 10^2-1.4 × 10^6 CFU/ml
Bacterial counts in urine, Geometric Mean (P. aeruginosa Xen 5; [26]): 3.1 × 10^5 CFU/ml
Range of bacterial counts in urine (P. aeruginosa Xen 5; [26]): 1.6 × 10^5-5.6 × 10^6 CFU/ml
